US4530838A, “Synthetic calcitonin-gene-related peptides for lowering blood pressure or gastric acid secretion in mammals” (The Salk Institute for Biological Studies, priority 1983, dated 1985)

Assays:
Beagle dogs [1] = test: Mean arterial blood pressure (MAP) by direct arterial monitoring in unanesthetized Beagle dogs; type: in vivo
Description: (§1) The synthetic CGRP was examined for its effect on mean arterial blood pressure(MAP) gastric acid secretion and plasma catecholamine levels. The effects of CGRP on MAP, gastric secretion and plasma catecholamine levels were determined in unanesthetized rats and Beagle dogs. MAP was measured via direct arterial monitoring and gastric acids were collected from chronic gastric-abdominal wall cannula. […] Mean arterial blood pressure in rats fell from 106 to 57±2 mm Hg within about 1 minute following an injection of 6.5 nmoles CGRP and then slowly returned to control values during a period of more than one hour. The iv administration of an injection equal to 650 pmoles of CGRP lowered MAP to 73±3 mm Hg in about one minute, returning to control value in about 1 hour. IV and ICV administration of CGRP (10 pmoles) to rats and dogs lowers pentagastrin-induced acid secretion by more than 70% for several hours.

[2] = Blood pressure (MAP) lowering, general procedure of Example I, species not stated; type: in vivo; details: species and dose not stated
Description: as §1
The peptide [Lys^35 ]-CGRP having the formula: [drawing 7] is synthesized.

rats [3] = test: Pentagastrin-induced gastric acid secretion, chronic gastric-abdominal wall cannula, rats; type: in vivo; details: IV and ICV, 10 pmoles, for several hours
Description: as §1

Beagle dogs [4] = test: Pentagastrin-induced gastric acid secretion, chronic gastric-abdominal wall cannula, dogs; type: in vivo; details: IV and ICV, 10 pmoles, for several hours
Description: as §1

[5] = Plasma catecholamine (norepinephrine) levels in unanesthetized animals; type: in vivo, rats and Beagle dogs; details: IV and ICV, 6.5 nmoles
Description: as §1

rats [6] = test: Mean arterial blood pressure (MAP) by direct arterial monitoring in unanesthetized rats; type: in vivo
Description: as §1

[7] = iv, degree and duration dose-related

Q: What does the source list for `CC(C)C[C@H](NC(=O)CNC(=O)[C@H](C)NC(=O)[C@H](CC(C)C)NC(=O)[C@H](CCCNC(=N)N)NC(=O)[C@H](Cc1c[nH]cn1)NC(=O)[C@@H](NC(=O)[C@@H](NC(=O)[C@@H]1CSSC[C@H](NC(=O)[C@@H](N)CO)C(=O)N[C@@H](CC(N)=O)C(=O)N[C@@H]([C@@H](C)O)C(=O)N[C@@H](C)C(=O)N[C@@H]([C@@H](C)O)C(=O)N1)C(C)C)[C@@H](C)O)C(=O)N[C@@H](CC(C)C)C(=O)N[C@@H](CO)C(=O)N[C@@H](CCCNC(=N)N)C(=O)N[C@@H](CO)C(=O)NCC(=O)NCC(=O)N[C@H](C(=O)N[C@H](C(=O)N[C@@H](CCCCN)C(=O)N[C@@H](CC(=O)O)C(=O)N[C@@H](CC(N)=O)C(=O)N[C@@H](Cc1ccccc1)C(=O)N[C@H](C(=O)N1CCC[C@H]1C(=O)N[C@H](C(=O)N[C@@H](CC(N)=O)C(=O)N[C@H](C(=O)NCC(=O)N[C@@H](CO)C(=O)N[C@@H](CCC(=O)O)C(=O)N[C@@H](C)C(=O)N[C@@H](Cc1ccccc1)C(N)=O)C(C)C)[C@@H](C)O)C(C)C)C(C)C)C(C)C` [CGRP]?
A: Rapid decrease in MAP evoked, intercerebroventricular (icv) administration (Beagle dogs [1]; icv): not; Effect on MAP, intravenous (iv) administration (Beagle dogs [1]; [7]): rapid decrease in MAP; Effect on blood pressure / MAP [2]: substantially lower blood pressure for an extended time period; Lowering of pentagastrin-induced acid secretion (rats [3]): more than 70%; Lowering of pentagastrin-induced acid secretion (Beagle dogs [4]): more than 70%; Norepinephrine in plasma [5]: significant elevation; Rapid decrease in MAP evoked, intercerebroventricular (icv) administration (rats [6]; icv): not; Period of return of MAP to control values (rats [6]; injection of 6.5 nmoles): more than one; Mean arterial blood pressure after injection (rats [6]; injection of 6.5 nmoles, fell from 106 within about 1 minute): 57±2 mm Hg; Time of return of MAP to control value (rats [6]; iv injection of 650 pmoles): about 1 hour; Mean arterial blood pressure after injection (rats [6]; iv injection of 650 pmoles, in about one minute): 73±3 mm Hg; Effect on MAP, intravenous (iv) administration (rats [6]; [7]): rapid decrease in MAP

Q: For `CC(C)C[C@H](NC(=O)CNC(=O)[C@H](C)NC(=O)[C@H](CC(C)C)NC(=O)[C@H](CCCNC(=N)N)NC(=O)[C@H](Cc1c[nH]cn1)NC(=O)[C@@H](NC(=O)[C@@H](NC(=O)[C@@H]1CSSC[C@H](NC(=O)[C@@H](N)CO)C(=O)N[C@@H](CC(N)=O)C(=O)N[C@@H]([C@@H](C)O)C(=O)N[C@@H](C)C(=O)N[C@@H]([C@@H](C)O)C(=O)N1)C(C)C)[C@@H](C)O)C(=O)N[C@@H](CC(C)C)C(=O)N[C@@H](CO)C(=O)N[C@@H](CCCNC(=N)N)C(=O)N[C@@H](CO)C(=O)NCC(=O)NCC(=O)N[C@H](C(=O)N[C@H](C(=O)N[C@@H](CCCCN)C(=O)N[C@@H](CC(=O)O)C(=O)N[C@@H](CC(N)=O)C(=O)N[C@@H](Cc1ccccc1)C(=O)N[C@H](C(=O)N1CCC[C@H]1C(=O)N[C@H](C(=O)N[C@@H](CC(N)=O)C(=O)N[C@H](C(=O)NCC(=O)N[C@@H](CO)C(=O)N[C@@H](CCCCN)C(=O)N[C@@H](C)C(=O)N[C@@H](Cc1ccccc1)C(N)=O)C(C)C)[C@@H](C)O)C(C)C)C(C)C)C(C)C` [[Lys^35]-CGRP], which “Effect on blood pressure / MAP” value [2] is on record?
A: The value was “very significant lowering of MAP”.
